One data set in a line: Stability in water. It counts as physicochemical. The source says:
3-(trimethoxysilyl) propyldimethyloctadecyl ammonium chloride (hereinafter also referred to as “Trimethoxy”) 104, is illustrated in FIG. 2 only as a precursor to the Trihydroxy molecule, when hydrolyzed by addition to water, shown in FIG. 1. […] Conventional methods of use of Trimethoxy 104 includes addition of a dilute solution in methanol to water. The EPA label required for Trimethoxy compounds states: “Danger. Corrosive. Causes irreversible eye damage and skin burns. Methanol may cause blindness. May be fatal if inhaled. May be harmful if swallowed or absorbed through the skin.”
The compound must then be used within a short period of time, such as a few hours to at most 12 hours, to treat a surface or fabric to produce a permanent surface coating.

The subject of data set [1] is mixed bacterial/fungal infectious otitis externa and infectious dermatitis. The experiment in a line: Example 1: treatment of otitis externa and dermatitis in a Shih Tzu dog. It counts as in vivo. As to conditions: oral, four weeks, before treatment with the composition.
Text: Conner's chest, neck, paws, and face were cleaned and treated twice daily with antimicrobial wipes (Douxo Chlorhexiding pads®) and an antimicrobial lotion (ResiKetoChlor®). The ears were cleaned once daily with a tris-EDTA/ketoconazole solution (TrizUltra plus Keto®) and treated twice daily with an amikacin otic preparation.
The animal had generalized mixed hypotrichosis/alopecia, erythema, hyperpigmentation, and lichenification with crusting over dorsal trunk, legs, paws, and ventrum. Hair on the face and neck was severely matted. The skin underlying the mats was crusted, with moist dermatitis and brown purulent exudate. Lymph node enlargement was palpated in the mandibular, prescapular, and popliteal node groups.
A generalized severe Malassezia (yeast) dermatitis was concentrated mostly on ventrum and paws. […] Fine-needle aspirates of peripheral lymph nodes (left prescapular and left popliteal) were consistent with reactive lymphadenopathy.
The otitis externa was treated initially by cleaning the ears with a salicylic acid based ear cleaner (Otoclean®) and instillation of 0.5 ml of the disclosed composition comprising Trihydroxy in each ear. Mats were removed and the dog was bathed and groomed over two days using (Splash plus® shampoo), followed by antimicrobial shampoo (Douxo Chlorhexidine® shampoo), followed by essential fatty acid cream rinse (Hylyt® cream rinse). […]

As to `CCCCCCCCCCCCCCCCCC[N+](C)(C)CCC[Si](O)(O)O.[Cl-]` [Trihydroxy, 3-(trihydroxysilyl) propyldimethyloctadecyl ammonium chloride], the stability in water entry in the data set “Stability in water” is listed as “stable with no other additives in water”.
On the same count and under the same terms, with `CCCCCCCCCCCCCCCCCC[N+](C)(C)CCC[Si](OC)(OC)OC.[Cl-]` [Trimethoxy, 3-(trimethoxysilyl) propyldimethyloctadecyl ammonium chloride] the entry was “unstable in water”.
For the compound `OC(Cn1cncn1)(Cn1cncn1)c1ccc(F)cc1F` [fluconazole], the “outcome of earlier conventional therapy” value in data set [1] is recorded as “failed”.
On the same count and under the same terms, to amoxicillin/clavulanate belongs “failed”.

Source of the values: patent publication US20170042916A1, “ANIMAL TISSUE COLONIZATION AND TREATMENT OF INFECTION” (priority 2014, published 2017).
